Results published in the supplement of paper PMC11551840.

What was measured:
Assay in all cases: IC50 (cell viability, 72 h) (ln(µM))
ORL-214 = test system: ORL-214
Description: (§1)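 Discovery screen of OSCC cell lines in 1,536-well plates. Cells were treated 24 h after seeding with 7 concentrations spanning a 1,000-fold half-log range for 72 h, and viability was read by CellTiter-Glo 2.0 and normalised to DMSO (1) and medium-only (0) controls. IC50 comes from a two-parameter logistic nonlinear mixed-effects fit and is reported as natural log of IC50 in µM.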

ORL-207 = test system: ORL-207
Description: as §1

ORL-174 = test system: ORL-174
Description: as §1

SCC-9 = test system: SCC-9
Description: as §1

HO-1-u-1 = test system: HO-1-u-1
Description: as §1

ORL-48 = test system: ORL-48
Description: as §1

ORL-195 = test system: ORL-195
Description: as §1

ORL-166 = test system: ORL-166
Description: as §1

BICR10 = test system: BICR10
Description: as §1

HSC-2 = test system: HSC-2
Description: as §1

ORL-204 = test system: ORL-204
Description: as §1

ORL-136 = test system: ORL-136
Description: as §1

ORL-156 = test system: ORL-156
Description: as §1

ORL-115 = test system: ORL-115
Description: as §1

ORL-153 = test system: ORL-153
Description: as §1

HSC-4 = test system: HSC-4
Description: as §1

PE-CA-PJ15 = test system: PE-CA-PJ15
Description: as §1

ORL-215 = test system: ORL-215
Description: as §1

ORL-188 = test system: ORL-188
Description: as §1

SAS = test system: SAS
Description: as §1

ORL-150 = test system: ORL-150
Description: as §1

SMILES | IC50 (ln) (ORL-214) | IC50 (ln) (ORL-207) | IC50 (ln) (ORL-174) | IC50 (ln) (SCC-9) | IC50 (ln) (HO-1-u-1) | IC50 (ln) (ORL-48) | IC50 (ln) (ORL-195) | IC50 (ln) (ORL-166) | IC50 (ln) (BICR10) | IC50 (ln) (HSC-2) | IC50 (ln) (ORL-204) | IC50 (ln) (ORL-136) | IC50 (ln) (ORL-156) | IC50 (ln) (ORL-115) | IC50 (ln) (ORL-153) | IC50 (ln) (HSC-4) | IC50 (ln) (PE-CA-PJ15) | IC50 (ln) (ORL-215) | IC50 (ln) (ORL-188) | IC50 (ln) (SAS) | IC50 (ln) (ORL-150)
CN[C@@H]1C[C@H]2O[C@@](C)([C@@H]1OC)n1c3ccccc3c3c4c(c5c6ccccc6n2c5c31)C(=O)NC4 [Staurosporine] | -4.45 | -4.38 | -4.98 | -1.81 | -3.13 | -3.62 | -2.23 | -4.99 | -2.87 | -3.4 | -2.94 | -1.49 | -3.75 | -2.54 | -5.03 | -2.01 | -1.61 | -2.53 | -4.74 | -1.77 | -2.55
CN(C)C/C=C/C(=O)Nc1ccc(C(=O)Nc2cccc(Nc3ncc(Cl)c(-c4c[nH]c5ccccc45)n3)c2)cc1 [THZ1] | -2.58 | -1.93 | -2.27 | -0.456 | -2.66 | -2.1 | -2.48 | -2.72 | -1.1 | -2.07 | -1.9 | -0.297 | -2.4 | -1.28 | -2.01 | -0.322 | -1.3 | -2.18 | -2.18 | -1.01 | -1.93
CC[C@@]1(O)C(=O)OCc2c1cc1n(c2=O)Cc2cc3c(CN(C)C)c(O)ccc3nc2-1 [Topotecan] | -2.24 | -1.86 | -1.41 | 1.79 | -0.253 | -0.589 | -0.561 | -1.82 | -0.563 | -2.93 | -1.8 | 1.32 | -0.763 | -0.116 | -1.49 | -1.66 | -0.416 | -0.991 | -2.17 | -2.78 | -1.36
CC[C@]1(O)C[C@@H]2CN(CCc3c([nH]c4ccccc34)[C@@](C(=O)OC)(c3cc4c(cc3OC)N(C)[C@H]3[C@@](O)(C(=O)OC)[C@H](OC(C)=O)[C@]5(CC)C=CCN6CC[C@]43[C@@H]65)C2)C1 [Vinblastine] | -5.86 | -6.16 | -3.94 | -1.75 | 0.0626 | -4.28 | -3.12 | -5.26 | -5.52 | -5.8 | -1.25 | -0.44 | -5.51 | -3.39 | -5.08 | 0.489 | -2.73 | -6 | -4.52 | -2.06 | -7.11
CCC1=C[C@@H]2CN(C1)Cc1c([nH]c3ccccc13)[C@@](C(=O)OC)(c1cc3c(cc1OC)N(C)[C@H]1[C@@](O)(C(=O)OC)[C@H](OC(C)=O)[C@]4(CC)C=CCN5CC[C@]31[C@@H]54)C2 [Vinorelbine] | -3.96 | -4.86 | -4 | -2.4 | -2.27 | -4.11 | -3.19 | -3.98 | -3.91 | -4.57 | -2.86 | -0.871 | -4.75 | -3.17 | -4.32 | -1.06 | -2.05 | -4.43 | -4.3 | -1.52 | -4.87
CC[C@@H]1C(=O)N(C)c2cnc(Nc3ccc(C(=O)N[C@H]4CC[C@H](N5CCN(CC6CC6)CC5)CC4)cc3OC)nc2N1C(C)C [Volasertib] | -1.65 | -2.9 | -2.1 | -0.541 | -1.37 | -1.36 | -1.33 | -2.71 | -2.43 | -2.15 | -0.0575 | 2.12 | -2.61 | -2.17 | -2.22 | -0.173 | 0.264 | -2.84 | -2.92 | -0.561 | -3.61
